This note sets out measurements from patent US20250034139A1, “AMINE COMPOUNDS HAVING ANTI-INFLAMMATORY, ANTIFUNGAL, ANTIPARASITIC, AND ANTICANCER ACTIVITY” (PHARMA CINQ, LLC, priority 2013, published 2025).

Values after ≈ are worked out from the molar mass of the structure shown. Values joined by “and” are separate entries in the source; they are usually repeats but may differ in a detail not shown here. Equal entries are not always repeated. Structures can show the parent of a compound that is named as a salt.

In one test the test system is 4T1 murine breast cancer cells. Description: Example S: in vitro anticancer screen, 4T1 cells, Wst1. Particulars: Mus musculus, 4T1, 18 h, 1 μM, 18 hr, Wst1; read-out: 4T1 1 μM, percent of cancer cell survival relative to vehicle treated cells. It is filed as cell-based, mouse. An outline of the steps: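 Read-out is Wst1 absorbance (450 nm, reference 630 nm) after roughly 2 hr dye incubation, giving percent cell survival versus vehicle. Before that, compounds at 1 μM or 5 μM were applied for 18 hr to 4T1 cells plated at 1×10^4 per well.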
For `Cc1ccc(OCCCCCCCCNc2ccnc3ccccc23)cc1` [BF, N-[8-(p-Tolyloxy)octyl]quinolin-4-amine], the viability at 1 µM came to 17.2%.
Turning to `Cc1ccccc1OCCCCCCCCNc1ccnc2ccccc12` [BG, N-[8-(o-Tolyloxy)octyl]quinolin-4-amine], the viability at 1 µM came out at 17.4%.
For the compound `Fc1cccc(OCCCCCCCCNc2ccnc3ccccc23)c1` [BI, N-[8-(3-Fluorophenoxy)octyl]quinolin-4-amine], the viability at 1 µM turned out to be 30%.
In the case of `Fc1ccc(OCCCCCCCCNc2ccnc3ccccc23)cc1` [BJ, N-[8-(4-Fluorophenoxy)octyl]quinolin-4-amine], the viability at 1 µM worked out at 16.9%.
On to `CCCCCCOCCCCCCCC[n+]1ccc(N)cc1` [BO, 4-Amino-1-[8-(hexyloxy)octyl]pyridinium salts], for which the viability at 1 µM was found to be 20.7%.

The test is the same for the next values; noted with them: Mus musculus, 4T1, 18 h, 5 μM, 18 hr, Wst1; read-out: 4T1 5 μM, percent of cancer cell survival relative to vehicle treated cells.
For `Cc1ccc(OCCCCCCCCNc2ccnc3ccccc23)cc1` [BF, N-[8-(p-Tolyloxy)octyl]quinolin-4-amine], the viability at 5 µM came to 19%.
Still for that read-out and setting: next, `Cc1ccccc1OCCCCCCCCNc1ccnc2ccccc12` [BG, N-[8-(o-Tolyloxy)octyl]quinolin-4-amine]: 17.8%; `Fc1cccc(OCCCCCCCCNc2ccnc3ccccc23)c1` [BI, N-[8-(3-Fluorophenoxy)octyl]quinolin-4-amine]: 17.3%; `Fc1ccc(OCCCCCCCCNc2ccnc3ccccc23)cc1` [BJ, N-[8-(4-Fluorophenoxy)octyl]quinolin-4-amine]: 31.3%.
As for `CCCCCCOCCCCCCCC[n+]1ccc(N)cc1` [BO, 4-Amino-1-[8-(hexyloxy)octyl]pyridinium salts], the viability at 5 µM is 18.6%.

A further test concerns PC3 human prostate cancer cells. The experiment in a line: Example S: in vitro anticancer screen, PC-3 cells, Wst1. It is filed as cell-based. Particulars: Homo sapiens, PC-3; 0.4 μM, approximately 20 hours, Wst1; read-out: PC-3, percent of cancer cell survival relative to vehicle treated cells. An outline of the steps:
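Values give percent survival relative to vehicle, read by Wst1 absorbance (450/630 nm) after 2 h dye incubation, in triplicate. Cells were seeded at 2×10^4/well and treated about 20 h with compound at 0.4, 0.5 or 2.5 μM, depending on compound.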
Consider `Cc1ccc(OCCCCCCCCNc2ccnc3ccccc23)cc1` [BF, N-[8-(p-Tolyloxy)octyl]quinolin-4-amine], for which the viability at 0.4 µM came out at 92.8%.
The same measure, in the same setting: next, `Cc1ccccc1OCCCCCCCCNc1ccnc2ccccc12` [BG, N-[8-(o-Tolyloxy)octyl]quinolin-4-amine]: 99.1%; `Fc1cccc(OCCCCCCCCNc2ccnc3ccccc23)c1` [BI, N-[8-(3-Fluorophenoxy)octyl]quinolin-4-amine]: 111%.
The same measure, in the same setting: the figure for `Fc1ccc(OCCCCCCCCNc2ccnc3ccccc23)cc1` [BJ, N-[8-(4-Fluorophenoxy)octyl]quinolin-4-amine] is 23.9%.
Turning to `CCCCCCOc1ccc(CNc2ccnc3ccccc23)cc1F` [BK, N-[3-Fluoro-4-(hexyloxy)benzyl]quinolin-4-amine], the viability at 0.4 µM was 29.2%.
`CCCCCCOCCCCCCCC[n+]1ccc(N)cc1` [BO, 4-Amino-1-[8-(hexyloxy)octyl]pyridinium salts]: the viability at 0.4 µM was 13.4%.

Another test relates to Trichophyton rubrum. The experiment in a line: Example J: Trichophyton rubrum growth inhibition, scoring by eye. The class given is cell-based. Particulars: Trichophyton rubrum, 144 h; 6 days at 30° C., tested 6 to 40 μM; read-out: MIC, μM (maximum inhibition concentration, scoring by eye). An outline of the steps:
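Filtered T. rubrum suspension from PDA plates (grown 4 days, 30 °C) treated with diluted compounds in triplicate, incubated 6 days at 30 °C. Plates imaged; MIC scored by eye.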
Take `CCCCCCOc1cccc(CNc2ncnc3ccccc23)c1` [AK, N-[3-(Hexyloxy)benzyl]quinazolin-4-amine]: the MIC is 18 µM (≈ 6.04 µg/mL).
On to `Cc1ccc(OCCCCCCCCNc2ccnc3ccccc23)cc1` [BF, N-[8-(p-Tolyloxy)octyl]quinolin-4-amine], for which the MIC was 18 µM (≈ 6.53 µg/mL).
On to `Cc1ccccc1OCCCCCCCCNc1ccnc2ccccc12` [BG, N-[8-(o-Tolyloxy)octyl]quinolin-4-amine], for which the MIC stood at 12 µM (≈ 4.35 µg/mL).
On the same count and under the same terms, next, `Fc1cccc(OCCCCCCCCNc2ccnc3ccccc23)c1` [BI, N-[8-(3-Fluorophenoxy)octyl]quinolin-4-amine]: 18 µM (≈ 6.6 µg/mL).
As for `Fc1ccc(OCCCCCCCCNc2ccnc3ccccc23)cc1` [BJ, N-[8-(4-Fluorophenoxy)octyl]quinolin-4-amine], the MIC came out at 18 µM (≈ 6.6 µg/mL).
Same read-out and setting: the figure for `c1ccc(Oc2cccc(CNc3ncnc4ccccc34)c2)cc1` [BM, N-(3-Phenoxybenzyl)quinazolin-4-amine] is 18 µM (≈ 5.89 µg/mL); for `CCCCCCOCCCCCCCC[n+]1ccc(N)cc1` [BO, 4-Amino-1-[8-(hexyloxy)octyl]pyridinium salts] it is over 40 µM.

The next test has as its system THP-1 cells. The experiment in a line: Example C: compound screen, viable THP-1 cell count after 5 hours +/- LPS. It is filed as cell-based, Human. Particulars: Compound (0.1 μM), No LPS. The source says: Background: THP-1 is a human acute myeloid leukemia (AML) cell line that can be induced into a macrophage-like cell with vitamin-D3 (vit-D3). In the macrophage, LPS (lipopolysaccharide; endotoxin) stimulation of toll-like receptor 4 (TLR-4) leads to NF-κB activation and secretion of inflammatory cytokines but also the priming of programmed death pathways through RIP and Caspase 8. The balance of this complex regulatory network is dependent on highly specific kinases, enzymes that require ATP. Disruption of either cytosolic pH or ATP availability/energy level uncouples this control network and the can macrophage shift away from production of inflammatory cytokines towards a programmed death event, which has the net effect of limiting inflammatory damage.
In the case of `c1ccc(Oc2cccc(CNc3ncnc4ccccc34)c2)cc1` [BM, N-(3-Phenoxybenzyl)quinazolin-4-amine], the “Reduction in viable THP-1 cell count (percent change) from 0 hours, Mean ± SE” value is recorded as −3.96 ± 0.82%.

Still in this test, the particulars now being: Compound (0.1 μM), Plus LPS.
For `c1ccc(Oc2cccc(CNc3ncnc4ccccc34)c2)cc1` [BM, N-(3-Phenoxybenzyl)quinazolin-4-amine], the “Reduction in viable THP-1 cell count (percent change) from 0 hours, Mean ± SE” value is −25.80 ± 3.26%.

The test is the same for the next values; noted with them: Compound (1.0 μM), No LPS.
Consider `c1ccc(Oc2cccc(CNc3ncnc4ccccc34)c2)cc1` [BM, N-(3-Phenoxybenzyl)quinazolin-4-amine], for which the “Reduction in viable THP-1 cell count (percent change) from 0 hours, Mean ± SE” value is on record as −4.18 ± 2.46%.

Staying with this test, now noted: Compound (1.0 μM), Plus LPS.
Regarding `c1ccc(Oc2cccc(CNc3ncnc4ccccc34)c2)cc1` [BM, N-(3-Phenoxybenzyl)quinazolin-4-amine], the “Reduction in viable THP-1 cell count (percent change) from 0 hours, Mean ± SE” value is recorded as −39.17 ± 2.18%.

Staying with this test, now noted: LPS-treated THP-1 cells.
For the compound `c1ccc(Oc2cccc(CNc3ncnc4ccccc34)c2)cc1` [BM, N-(3-Phenoxybenzyl)quinazolin-4-amine], the “ability to inactivate pro-inflammatory THP-1 cells, in words (relative to benchmark AC)” value is “higher activity than the active benchmark compound AC”.

The next test concerns THP-1 cells. The experiment in a line: Example D: LPS-triggered THP-1 cell death assay, acute/5-hour and chronic/48-hour. It is filed as cell-based, Human. Particulars: 10 ng/ml LPS, 0.1 μM test compound, 48 hours. The method, then:
Compounds of the invention were tested at 0.1 μM versus AC in the LPS-triggered THP-1 cell death assay. Both acute/5-hour and chronic/48-hour phases of cell death were assessed. Compounds were screened in batches with DMSO as the negative control and AC as the high activity control.
In the case of `Cc1ccc(OCCCCCCCCNc2ccnc3ccccc23)cc1` [BF, N-[8-(p-Tolyloxy)octyl]quinolin-4-amine], the “Viable cell percent change, Chronic/48-hour, Mean” value (shortened to “Viable cell percent change”) turned out to be 31.64%.
For `Fc1cccc(OCCCCCCCCNc2ccnc3ccccc23)c1` [BI, N-[8-(3-Fluorophenoxy)octyl]quinolin-4-amine], the “Viable cell percent change” value was 27.30%.
Turning to `Fc1ccc(OCCCCCCCCNc2ccnc3ccccc23)cc1` [BJ, N-[8-(4-Fluorophenoxy)octyl]quinolin-4-amine], the “Viable cell percent change” value is 18.03%.
For `CCCCCCOc1ccc(CNc2ccnc3ccccc23)cc1F` [BK, N-[3-Fluoro-4-(hexyloxy)benzyl]quinolin-4-amine], the “Viable cell percent change” value is given as 43.69%.
In the case of `c1ccc(Oc2cccc(CNc3ncnc4ccccc34)c2)cc1` [BM, N-(3-Phenoxybenzyl)quinazolin-4-amine], the “Viable cell percent change” value was determined as 29.97%.
For the compound `CCCCCCOCCCCCCCC[n+]1ccc(N)cc1` [BO, 4-Amino-1-[8-(hexyloxy)octyl]pyridinium salts], the “Viable cell percent change” value came to 28.35%.

The same test, now with this note: 10 ng/ml LPS, 0.1 μM test compound, 48 hours; 0.1 µM.
Regarding `Cc1ccccc1OCCCCCCCCNc1ccnc2ccccc12` [BG, N-[8-(o-Tolyloxy)octyl]quinolin-4-amine], the “Viable cell percent change” value is 38.39% and 31.07%.

The same test, now with this note: 0.1 μM, 5-hour and 48-hour time points.
Turning to `CCCCCCOc1cccc(CNc2ncnc3ccccc23)c1` [AK, N-[3-(Hexyloxy)benzyl]quinazolin-4-amine], the “activity relative to AC in the LPS-triggered THP-1 cell death assay, in words” value (from here on “activity relative to AC”) is “equivalent activity to AC at both the 5-hour and 48-hour time points”.
Take `CCCCCCOc1ccc(CNc2ccnc3ccccc23)cc1F` [BK, N-[3-Fluoro-4-(hexyloxy)benzyl]quinolin-4-amine]: the “activity relative to AC” value was “equivalent activity to AC at both the 5-hour and 48-hour time points”.
Turning to `c1ccc(Oc2cccc(CNc3ncnc4ccccc34)c2)cc1` [BM, N-(3-Phenoxybenzyl)quinazolin-4-amine], the “activity relative to AC” value was “more active than AC at the chronic/48-hour time point”.
